Converted amounts (≈) assume the structure as drawn. Where two headings read alike, the source gives them in different places.
Experiments:
A. baumannii A472 [1] = assay: MIC without and with sub-inhibitory polymyxin B (Example 4); type: cell-based, Acinetobacter baumannii; conditions: for MIC: Acinetobacter baumannii
A. baumannii A387 [2] = assay: Preliminary MBC without and with sub-inhibitory polymyxin B (Example 4); type: cell-based, Acinetobacter baumannii; conditions: Acinetobacter baumannii
A. baumannii J2 = assay: MIC without and with sub-inhibitory polymyxin B (Example 4); type: cell-based, Acinetobacter baumannii; conditions: for MIC without PB/MIC + PB: A. baumannii J2; for MIC: Acinetobacter baumannii
A. baumannii A472 [3] = assay: Preliminary MBC without and with sub-inhibitory polymyxin B (Example 4); type: cell-based, Acinetobacter baumannii; conditions: Acinetobacter baumannii, preliminary MBC
[4] = tested on: Acinetobacter sp. (H064200250); assay: MIC without and with sub-inhibitory polymyxin B (Example 4); type: cell-based; conditions: for MIC: Acinetobacter
A. baumannii A329 = assay: Preliminary MBC without and with sub-inhibitory polymyxin B (Example 4); type: cell-based, Acinetobacter baumannii; conditions: Acinetobacter baumannii, A329, A. baumannii A329, +0.06 μg/ml PB, 2nd experiment, read-out: MBC
A. baumannii NCTC 13301 [5] = assay: as above; type: cell-based, Acinetobacter baumannii; conditions: Acinetobacter baumannii
Summary of the method: (§1)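 Bactericidal endpoint scored visually on plates incubated at 37° C (18-20 hours): the lowest concentration where growth fell about 90% versus the positive control, generally leaving one colony or none.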

A. baumannii A473 [6] = assay: as above; type: cell-based, Acinetobacter baumannii; conditions: Acinetobacter baumannii, A473, A. baumannii A473, +0.06 μg/ml PB, 2nd experiment, read-out: MBC
Summary of the method: as §1

A. baumannii A390 [7] = assay: as above; type: cell-based, Acinetobacter baumannii; conditions: Acinetobacter baumannii, A390, A. baumannii A390, +0.06 μg/ml PB, 2nd experiment, read-out: MBC
Summary of the method: as §1

A. baumannii A14 [8] = assay: as above; type: cell-based, Acinetobacter baumannii; conditions: A. baumannii A14, +0.06 μg/ml PB, 2nd experiment
Summary of the method: as §1

A. baumannii A473 [9] = assay: MIC without and with sub-inhibitory polymyxin B (Example 4); type: cell-based, Acinetobacter baumannii; conditions: A. baumannii A473; +0.06 μg/ml PB; 2nd experiment
A. baumannii A401 [10] = assay: Preliminary MBC without and with sub-inhibitory polymyxin B (Example 4); type: cell-based, Acinetobacter baumannii; conditions: Acinetobacter baumannii
A. baumannii ATCC 19606 = assay: MIC without and with sub-inhibitory polymyxin B (Example 4); type: cell-based, Acinetobacter baumannii; conditions: A. baumannii ATCC 19606
A. baumannii A14 [11] = assay: Preliminary MBC without and with sub-inhibitory polymyxin B (Example 4); type: cell-based, Acinetobacter baumannii; conditions: A. baumannii A14; +0.06 μg/ml polymyxin B; preliminary MBC; 1st experiment
A. baumannii A390 [12] = assay: MIC without and with sub-inhibitory polymyxin B (Example 4); type: cell-based, Acinetobacter baumannii; conditions: +0.06 μg/ml PB, 2nd experiment
A. baumannii A489 = assay: as above; type: cell-based, Acinetobacter baumannii; conditions: for MIC without PB/MIC + PB: A. baumannii A489; for MIC: Acinetobacter baumannii
[13] = tested on: strains of A. baumannii and one strain of Acinetobacter sp.; assay: MIC with sub-inhibitory concentrations (0.25x MIC) of polymyxin B, panel of Acinetobacter strains (Example 4); type: cell-based
A. baumannii NCTC 13301 [14] = assay: MIC without and with sub-inhibitory polymyxin B (Example 4); type: cell-based, Acinetobacter baumannii; conditions: +[…] PB, 2nd experiment
A. baumannii A14 [15] = assay: as above; type: cell-based, Acinetobacter baumannii; conditions: 1st experiment
A. baumannii A401 [16] = assay: as above; type: cell-based, Acinetobacter baumannii; conditions: for MIC: Acinetobacter baumannii
A. baumannii NCTC 13301 [17] = assay: as above; type: cell-based, Acinetobacter baumannii
A. baumannii A14 [18] = assay: as above; type: cell-based, Acinetobacter baumannii; conditions: 2nd experiment
A. baumannii A387 [19] = assay: as above; type: cell-based, Acinetobacter baumannii; conditions: for MIC without PB/MIC + PB: A. baumannii A387; for MIC: Acinetobacter baumannii
[20] = ratio, PB 0.06 μg/ml, 1st experiment
[21] = A. baumannii A14, +0.06 μg/ml PB

**Q.** What does the source list for `Cc1c(-c2cc(F)c(N)cc2F)ccn2c(=O)c(C(=O)O)cc(C3CC3)c12` [Compound 2, 8-(4-amino-2,5-difluorophenyl)-1-cyclopropyl-9-methyl-4-oxo-4H-quinolizine-3-carboxylic acid]?
**A.** MIC without PB/MIC + PB (A. baumannii A472 [1]; A. baumannii A472, ratio, PB […], 1st experiment): ≥128; MIC (A. baumannii A472 [1]; A472, A. baumannii A472, +[…] PB, 2nd experiment, read-out: MIC): ≤ 0.03 µg/mL; MIC (A. baumannii A472 [1]; A472, read-out: MIC +[…] PB, A. baumannii A472, +[…] polymyxin B, 1st experiment): ≤ 0.03 µg/mL; MBC (A. baumannii A387 [2]; A387, A. baumannii A387, +0.06 μg/ml PB, 2nd experiment, read-out: MBC): ≤ 0.03 µg/mL; MBC (A. baumannii A387 [2]; A387, read-out: MBC +0.06 μg/ml PB, A. baumannii A387, +0.06 μg/ml polymyxin B, 1st experiment): ≤ 0.03 µg/mL; MIC without PB/MIC + PB (A. baumannii J2; +[…] PB, 2nd experiment): ≥128; MIC without PB/MIC + PB (A. baumannii J2; ratio, PB […], 1st experiment): ≥128; MIC (A. baumannii J2; J2, A. baumannii J2, +[…] PB, 2nd experiment, read-out: MIC): ≤ 0.03 µg/mL; MIC (A. baumannii J2; J2, read-out: MIC +[…] PB, A. baumannii J2, +[…] polymyxin B, 1st experiment): ≤ 0.03 µg/mL; MBC (A. baumannii A472 [3]; A472, A. baumannii A472, +[…] PB, 2nd experiment, read-out: MBC): ≤ 0.03 µg/mL; MBC (A. baumannii A472 [3]; A472, read-out: MBC +[…] PB, A. baumannii A472, +[…] polymyxin B, 1st experiment): ≤ 0.03 µg/mL; MIC without PB/MIC + PB ([4]; Acinetobacter spp. H064200250 (OXA51), +[…] PB, 2nd experiment): ≥128; MIC without PB/MIC + PB ([4]; Acinetobacter spp. H064200250, ratio, PB […], 1st experiment): ≥128; MIC ([4]; Acinetobacter spp. H064200250 (OXA51), +[…] PB, 2nd experiment, read-out: MIC): ≤ 0.03 µg/mL; MIC ([4]; read-out: MIC +[…] PB, Acinetobacter spp. H064200250, +[…] polymyxin B, 1st experiment): ≤ 0.03 µg/mL; MBC (A. baumannii A329): 0.5 µg/mL (≈ 1.35 µM); MBC (A. baumannii NCTC 13301 [5]; NCTC13301, A. baumannii NCTC 13301, +[…] PB, preliminary MBC, 2nd experiment, read-out: MBC): ≤ 0.03 µg/mL; MBC (A. baumannii NCTC 13301 [5]; NCTC13301, read-out: MBC +[…] PB): ≤ 0.03 µg/mL; MBC (A. baumannii A473 [6]): 0.125 µg/mL (≈ 0.338 µM); MBC (A. baumannii A390 [7]): 0.06 µg/mL (≈ 0.162 µM); MBC (A. baumannii A14 [8]): 0.06 µg/mL (≈ 0.162 µM); MIC without PB/MIC + PB (A. baumannii A473 [9]): 64; MBC (A. baumannii A401 [10]; A401, A baumannii A 401, +0.06 μg/ml PB, 2nd experiment, read-out: MBC): ≤ 0.03 µg/mL; MBC (A. baumannii A401 [10]; A401, read-out: MBC +0.06 μg/ml PB, A baumannii A 401, +0.06 μg/ml polymyxin B, 1st experiment): ≤ 0.03 µg/mL; MIC without PB/MIC + PB (A. baumannii ATCC 19606; +0.06 μg/ml PB, 2nd experiment): ≥4; MIC without PB/MIC + PB (A. baumannii ATCC 19606; [20]): ≥1; MBC +0.06 μg/ml PB (A. baumannii A14 [11]): ≤0.03 µg/mL; MIC without PB/MIC + PB (A. baumannii A390 [12]; A. baumannii A390): ≥512; MIC (A. baumannii A390 [12]; Acinetobacter baumannii, A390, A. baumannii A390, read-out: MIC): ≤ 0.03 µg/mL; MIC without PB/MIC + PB (A. baumannii A489; +[…] PB, 2nd experiment): ≥128; MIC without PB/MIC + PB (A. baumannii A489; ratio, PB […], 1st experiment): ≥64; MIC (A. baumannii A489; A489, A. baumannii A489, +[…] PB, 2nd experiment, read-out: MIC): ≤ 0.03 µg/mL; MIC (A. baumannii A489; A489, read-out: MIC +[…] PB, A. baumannii A489, +[…] polymyxin B, 1st experiment): ≤ 0.03 µg/mL; MIC range with PB (0.25x MIC) Oct. 1, 2008 n = 8 ([13]; 1st experiment, […] polymyxin B, ATCC 19606, A329, A390 and A473 not taken): ≤0.03 to 1 µg/mL; MIC range with PB (0.25x MIC) Oct. 14, 2008 n = 11 ([13]; 2nd experiment, 0.06 μg/ml polymyxin B, all strains except the ATCC strain): ≤0.03 to 0.5 µg/mL; MIC without PB/MIC + PB (A. baumannii NCTC 13301 [14]; A. baumannii NCTC 13301): ≥512; MIC (A. baumannii NCTC 13301 [14]; Acinetobacter baumannii, NCTC13301, A. baumannii NCTC 13301, read-out: MIC): ≤ 0.03 µg/mL; MIC +0.06 μg/ml PB (A. baumannii A14 [15]; +0.06 μg/ml polymyxin B): ≤0.03 µg/mL; MIC (A. baumannii A14 [15]; Acinetobacter baumannii, 24 h, without polymyxin B, read-out: MIC without PB): 16 µg/mL (≈ 43.2 µM); MIC without PB/MIC + PB (A. baumannii A14 [15]; ratio, PB 0.06 μg/ml): ≥512; MIC without PB/MIC + PB (A. baumannii A401 [16]; A baumannii A 401, ratio, PB 0.06 μg/ml, 1st experiment): ≥128; MIC (A. baumannii A401 [16]; A401, A baumannii A 401, +0.06 μg/ml PB, 2nd experiment, read-out: MIC): ≤ 0.03 µg/mL; MIC (A. baumannii A401 [16]; A401, read-out: MIC +0.06 μg/ml PB, A baumannii A 401, +0.06 μg/ml polymyxin B, 1st experiment): ≤ 0.03 µg/mL; MIC without PB/MIC + PB (A. baumannii NCTC 13301 [17]; A. baumannii NCTC 13301, ratio, PB […], 1st experiment): ≥512; MIC (A. baumannii NCTC 13301 [17]; Acinetobacter baumannii, NCTC13301, read-out: MIC +[…] PB): ≤ 0.03 µg/mL; MIC (A. baumannii A14 [18]; [21]): 0.06 µg/mL (≈ 0.162 µM); MIC without PB/MIC + PB (A. baumannii A14 [18]; [21]): 256; MIC (A. baumannii A14 [18]; Acinetobacter baumannii, A14, A. baumannii A14, without PB, read-out: MIC): 16 µg/mL (≈ 43.2 µM); MIC without PB/MIC + PB (A. baumannii A387 [19]; +0.06 μg/ml PB, 2nd experiment): ≥32; MIC without PB/MIC + PB (A. baumannii A387 [19]; [20]): ≥16; MIC (A. baumannii A387 [19]; A387, A. baumannii A387, +0.06 μg/ml PB, 2nd experiment, read-out: MIC): ≤ 0.03 µg/mL; MIC (A. baumannii A387 [19]; A387, read-out: MIC +0.06 μg/ml PB, A. baumannii A387, +0.06 μg/ml polymyxin B, 1st experiment): ≤ 0.03 µg/mL

Reference: patent US20190105367A1, “ANTIMICROBIAL 4-OXOQUINOLIZINES” (Emergent Product Development Gaithersburg Inc., priority 2011, published 2019)
